Assays:
[1] = system: adult houseflies (Musca domestica); assay: Musca domestica test (MUSCDO); format: in vivo; conditions: application rate 100 ppm; after 2 days
Method in brief: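 Compound dissolved in DMSO and diluted with water to the test concentration, applied with sugar solution on a sponge; 10 adult houseflies per vessel. Mortality scored after 2 days as % kill (100% all dead, 0% none).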

[2] = system: bont tick nymphs (Amblyomma hebraeum); conditions: after 48 h
[3] = system: larvae of the mustard beetle (Phaedon cochleariae); assay: Phaedon cochleariae spray test (PHAECO); format: in vivo; conditions: Chinese cabbage leaf discs, after 7 days
Method in brief: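 Compound dissolved in acetone/dimethylformamide with alkylaryl polyglycol ether emulsifier, made up in water containing 1000 ppm emulsifier, then diluted to test concentrations and sprayed against mustard beetle larvae. Efficacy (% larvae killed) scored after 7 days.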

[4] = system: adult dog ticks (Rhipicephalus sanguineus); assay: Rhipicephalus sanguineus in vitro contact test with adult brown dog ticks (T2); conditions: after 48 h
Method in brief: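 Acetone solutions coated onto test tube walls and floor, giving 5 μg/cm^2 at 900 ppm. Five to ten adult ticks held per tube in the dark at room temperature for 48 h, then heated at 45-50° C for up to 5 min; efficacy is the percentage of dead or moribund ticks unable to climb away.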

[5] = system: L1 larvae of the Australian sheep blowfly (Lucilia cuprina); assay: Lucilia cuprina test (LUCICU); format: in vivo; conditions: application rate 100 ppm; after 2 days
Method in brief: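 About 20 L1 larvae placed in a vessel with minced horsemeat plus compound (DMSO concentrate diluted with water to the desired concentration). Kill in % scored after 2 days, 100% meaning all larvae dead.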

[6] = system: adult cat fleas (Ctenocephalides felis); assay: Ctenocephalides felis in vitro contact test with adult cat fleas (T1); conditions: after 48 h
Method in brief: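 Test compound was dissolved in acetone p.a. (9 mg per 1 ml) and diluted as needed. 250 μl was spread evenly over the inner walls and floor of a 25 ml test tube by rotating on an orbital shaker for 2 h at 30 rpm. Once the solvent evaporated, 5-10 adult Ctenocephalides felis were added. Tubes were capped with a perforated plastic lid and kept horizontal at room temperature and ambient humidity.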

[7] = system: greenhouse red spider mite (Tetranychus urticae); assay: Tetranychus urticae spray test, OP-resistant (TETRUR); format: in vivo; conditions: bean leaf discs, after 6 days
Method in brief: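 Bean leaf discs carrying all stages of OP-resistant Tetranychus urticae were sprayed with compound formulated in acetone/dimethylformamide and diluted in water with 1000 ppm alkylaryl polyglycol ether emulsifier. Mortality (% efficacy, 100% = all mites killed) scored after 6 days.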

[8] = logP determination by HPLC on a reversed-phase column (C18), EEC Directive 79/831 Annex V.A8; format: physicochemical; conditions: HPLC on reversed-phase column (C18), acetonitrile/water with formic acid, EEC Directive 79/831 Annex V.A8
Method in brief: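 Retention on a C18 reversed-phase column (Zorbax Eclipse Plus, 1.8 micron) was used, eluting with acetonitrile/water, each containing formic acid. The gradient ran from 10% to 95% acetonitrile over 4.25 min, then held 1.25 min, at 55° C and 2.0 ml/min, with MS detection.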

[9] = system: caterpillars of the armyworm (Spodoptera frugiperda); assay: Spodoptera frugiperda spray test (SPODFR); format: in vivo; conditions: maize leaf discs, after 7 days
Method in brief: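 Maize leaf discs sprayed with compound in acetone/DMF with alkylaryl polyglycol ether emulsifier (1000 ppm) in water, dried, then infested with armyworm caterpillars. Mortality (%) scored after 7 days; 100% = all caterpillars killed, 0% = none killed.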

[10] = system: engorged adult female cattle ticks (Boophilus microplus); assay: Boophilus microplus injection test (BOOPMI Inj); format: in vivo; conditions: application rate 20 μg/animal; injection into abdomen; assessed after 7 days
Method in brief: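 DMSO solution of compound (1 μl) injected into the abdomen of 5 engorged adult female ticks, which are then held in a climate-controlled room. After 7 days, efficacy is scored from laying of fertile eggs, with unclear eggs kept until larval hatch (~42 days); 100% means no fertile eggs, 0% all fertile.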

[11] = system: adult cat fleas (Ctenocephalides felis); assay: Ctenocephalides felis oral test (CTECFE); format: in vivo; conditions: application rate 100 ppm in citrated cattle blood; after 2 days
Method in brief: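 About 20 unfed adult cat fleas fed through parafilm membrane on citrated cattle blood containing compound (DMSO stock diluted in blood to test concentration). Kill % scored after 2 days (100% = all fleas dead).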

[12] = system: green peach aphid (Myzus persicae); assay: Myzus persicae spray test (MYZUPE); format: in vivo; conditions: Chinese cabbage leaf discs, after 6 days
Method in brief: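 Chinese cabbage leaf discs infested with all aphid stages sprayed with compound in acetone/DMF with alkylaryl polyglycol ether emulsifier in water. Efficacy (% aphids killed; 100% all dead, 0% none) scored after 6 days.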

[13] = system: cattle ticks (Boophilus microplus) Parkhurst strain, SP-resistant; assay: Boophilus microplus dip test (BOOPMI Dip); format: in vivo; conditions: application rate 100 ppm, assessed after 7 days
Method: B. Boophilus microplus-dip Test (BOOPMI Dip)
Test animals: cattle ticks (Boophilus microplus) Parkhurst strain, SP-resistant
Solvent: dimethyl sulphoxide
10 mg of active compound are dissolved in 0.5 ml of dimethyl sulphoxide. For the purpose of preparing a suitable formulation, the active compound solution is diluted with water to the concentration desired in each case.
This active compound preparation is pipetted into tubes. 8-10 adult engorged female cattle ticks (Boophilus microplus) are transferred into a further tube with holes. The tube is immersed into the active compound formulation, and all ticks are completely wetted. After the liquid has run out, the ticks are transferred on filter discs into plastic dishes and stored in a climate-controlled room.
The activity is assessed after 7 days by laying of fertile eggs. Eggs whose fertility is not visible from the outside are stored in a climate-controlled cabinet until the larvae hatch after about 42 days. An efficacy of 100% means that none of the ticks has laid any fertile eggs; 0% means that all eggs are fertile.

[14] = system: adult castor bean ticks (Ixodes ricinus); assay: Ixodes ricinus in vitro contact test with adult castor bean ticks (T3); conditions: after 48 h
Method: T3. Ixodes ricinus-in vitro Contact Tests with Adult Castor Bean Ticks
For the coating of the test tubes, initially 9 mg of active compound are dissolved in 1 ml of acetone p.a. and then diluted with acetone p.a. to the desired concentration. By turning and rocking on an orbital shaker (2 h of rocking rotation at 30 rpm), 250 μl of the solution are distributed homogeneously on the internal walls and the floor of a 25 ml test tube. At 900 ppm active compound solution and 44.7 cm^2 internal surface, an area dose of 5 μg/cm^2 is achieved for homogeneous distribution.
After evaporation of the solvent, the tubes are populated with 5-10 adult castor bean ticks (Ixodes ricinus), sealed with a perforated plastic lid and incubated in a horizontal position in the dark at 22° C. and 90% humidity in a climate-controlled cabinet. After 48 h, the efficacy is determined. To this end, the ticks are knocked to the floor of the tube and incubated on a hotplate at 45-50° C. for at most 5 min. Ticks which remain motionless on the floor or move in an uncoordinated manner such that they are not able to deliberately avoid the heat by climbing upwards are considered to be dead or moribund.
An efficacy of 100% means that all ticks were dead or moribund. 0% efficacy means that none of the ticks had been damaged.

Compound: Cn1nc(C(F)(F)C(F)(F)F)c(C(F)(F)F)c1-n1cc(-c2ccc(Cl)c(C(=O)NC3(C(F)(F)F)CC3)c2)cn1 [Ic-32]
- efficacy (kill in %) [1]: 100%
- efficacy (dead or moribund ticks) [2]: 100%
- efficacy in % ([3]; application rate 100 g/ha): 100%
- efficacy (dead or moribund ticks) ([4]; application rate 1 μg/cm^2): 80%
- efficacy (kill in %) [5]: 100%
- efficacy (dead or moribund fleas) ([6]; application rate 5 μg/cm^2): 80%
- efficacy in % ([7]; application rate 100 g/ha): 100%
- logP [8]: 4.29
- efficacy in % ([9]; application rate 100 g/ha): 100%
- efficacy (laying of fertile eggs) [10]: 100%
- efficacy (kill in %) [11]: 100%

Compound: Cn1nc(C(F)(F)C(F)(F)F)c(C(F)(F)F)c1-n1cc(-c2cc(C(=O)NC3(C#N)CC3)c(F)cc2Cl)cn1 [Ic-48]
- efficacy (kill in %) [1]: 100%
- efficacy in % ([12]; application rate 100 g/ha): 90%
- efficacy (laying of fertile eggs) [13]: 80%
- efficacy (dead or moribund ticks) [2]: 100%
- efficacy in % ([3]; application rate 500 g/ha): 100%
- efficacy (dead or moribund ticks) ([4]; application rate 1 μg/cm^2): 100%
- efficacy (dead or moribund ticks) ([4]; application rate 5 μg/cm^2): 100%
- efficacy (dead or moribund ticks) ([14]; application rate 1 μg/cm^2): 80%
- efficacy (dead or moribund ticks) ([14]; application rate 5 μg/cm^2): 100%
- efficacy (kill in %) [5]: 100%
- efficacy (dead or moribund fleas) ([6]; application rate 1 μg/cm^2): 100%
- efficacy (dead or moribund fleas) ([6]; application rate 5 μg/cm^2): 100%
- efficacy in % ([7]; application rate 100 g/ha): 90%
- efficacy in % ([9]; application rate 500 g/ha): 100%
- efficacy (laying of fertile eggs) [10]: 100%
- efficacy (kill in %) [11]: 100%

Compound: Cn1nc(C(F)(F)C(F)(F)F)c(C(F)(F)F)c1-n1cc(-c2ccc(Cl)c(C(=O)NCCF)c2)cn1 [Ic-77]
- efficacy (kill in %) [1]: 100%
- efficacy in % ([12]; application rate 100 g/ha): 100%
- efficacy (laying of fertile eggs) [13]: 100%
- efficacy (dead or moribund ticks) ([4]; application rate 1 μg/cm^2): 100%
- efficacy (dead or moribund ticks) ([4]; application rate 5 μg/cm^2): 100%
- efficacy (kill in %) [5]: 100%
- efficacy (dead or moribund fleas) ([6]; application rate 1 μg/cm^2): 100%
- efficacy (dead or moribund fleas) ([6]; application rate 5 μg/cm^2): 100%
- efficacy in % ([7]; application rate 100 g/ha): 100%
- logP [8]: 3.67
- efficacy in % ([9]; application rate 100 g/ha): 100%
- efficacy (laying of fertile eggs) [10]: 100%
- efficacy (kill in %) [11]: 100%

Compound: COc1ncc(-c2cnn(-c3c(C(F)(F)F)c(C(F)(F)C(F)(F)F)nn3C)c2)cc1C(=O)NC1CC1 [Ic-86]
- efficacy (kill in %) [1]: 100%
- efficacy in % ([12]; application rate 500 g/ha): 100%
- efficacy (laying of fertile eggs) [13]: 100%
- efficacy (dead or moribund ticks) [2]: 100%
- efficacy in % ([3]; application rate 500 g/ha): 100%
- efficacy (dead or moribund ticks) ([4]; application rate 1 μg/cm^2): 100%
- efficacy (dead or moribund ticks) ([4]; application rate 5 μg/cm^2): 100%
- efficacy (dead or moribund ticks) ([14]; application rate 1 μg/cm^2): 80%
- efficacy (dead or moribund ticks) ([14]; application rate 5 μg/cm^2): 100%
- efficacy (kill in %) [5]: 100%
- efficacy (dead or moribund fleas) ([6]; application rate 1 μg/cm^2): 100%
- efficacy (dead or moribund fleas) ([6]; application rate 5 μg/cm^2): 100%
- efficacy in % ([7]; application rate 500 g/ha): 100%
- efficacy in % ([9]; application rate 500 g/ha): 100%
- efficacy (laying of fertile eggs) [10]: 100%
- efficacy (kill in %) [11]: 100%

Compound: COc1ncc(-c2cnn(-c3c(C(F)(F)F)c(C(F)(F)C(F)(F)F)nn3C)c2)cc1C(=O)NC1(C#N)CC1 [Ic-87]
- efficacy (kill in %) [1]: 100%
- efficacy in % ([12]; application rate 100 g/ha): 90%
- efficacy (dead or moribund ticks) [2]: 100%
- efficacy in % ([3]; application rate 500 g/ha): 100%
- efficacy (dead or moribund ticks) ([4]; application rate 1 μg/cm^2): 100%
- efficacy (dead or moribund ticks) ([4]; application rate 5 μg/cm^2): 100%
- efficacy (dead or moribund ticks) ([14]; application rate 1 μg/cm^2): 80%
- efficacy (dead or moribund ticks) ([14]; application rate 5 μg/cm^2): 100%
- efficacy (kill in %) [5]: 100%
- efficacy (dead or moribund fleas) ([6]; application rate 1 μg/cm^2): 100%
- efficacy (dead or moribund fleas) ([6]; application rate 5 μg/cm^2): 100%
- efficacy in % ([7]; application rate 500 g/ha): 100%
- efficacy in % ([9]; application rate 500 g/ha): 100%
- efficacy (laying of fertile eggs) [10]: 100%
- efficacy (kill in %) [11]: 100%

Source: US9487489B2, “Halogen-substituted pyrazole derivatives as pest-control agents” (BAYER CROPSCIENCE AKTIENGESELLSCHAFT, priority 2013, dated 2016)
